Test results as given in ChEMBL document CHEMBL3421543, “Melanocortin antagonist tetrapeptides with minimal agonist activity at the mouse melanocortin-3 receptor” (ACS Med Chem Lett, 2015).
Calls of active or inactive are those of the source. The rule behind the calls is not given here. Where a SMILES comes first, the peptide text is derived from it. [ ]: non-standard residue; d: D form. dPhe(4-I) = N[C@H](Cc1ccc(I)cc1)C(=O)O

Legend:
Format in all cases: cell-based
[1] = molecular target: Melanocyte-stimulating hormone receptor (Mus musculus, UniProt Q01727); test: Agonist activity at mouse melanocortin-1 receptor transfected in HEK293 cells after 6 hrs by beta-galactosidase reporter gene assay
[2] = molecular target: Melanocortin receptor 3 (Mus musculus) (UniProt P33033); test: Agonist activity at mouse melanocortin-3 receptor transfected in HEK293 cells at 1 uM after 6 hrs by beta-galactosidase reporter gene assay relative to MTII-induced maximal response
[3] = molecular target: Melanocortin receptor 3 (Mus musculus) (UniProt P33033); test: Antagonist activity at mouse melanocortin-3 receptor transfected in HEK293 cells assessed as inhibition of MTII-induced response up to 100 uM after 6 hrs by Schild analysis
[4] = molecular target: Melanocortin receptor 5 (Mus musculus, UniProt P41149); test: Agonist activity at mouse melanocortin-5 receptor transfected in HEK293 cells after 6 hrs by beta-galactosidase reporter gene assay
[5] = molecular target: T1, Melanocortin receptor 3 (Mus musculus, UniProt P33033); test: Agonist activity at mouse melanocortin-3 receptor transfected in HEK293 cells after 6 hrs by beta-galactosidase reporter gene assay
[6] = molecular target: T2, Melanocortin receptor 4 (Mus musculus, UniProt P56450); test: Agonist activity at mouse melanocortin-4 receptor transfected in HEK293 cells after 6 hrs by beta-galactosidase reporter gene assay
[7] = molecular target: T2, Melanocortin receptor 4; test: (§1) Antagonist activity at mouse melanocortin-4 receptor transfected in HEK293 cells assessed as inhibition of MTII-induced response after 6 hrs by Schild analysis; settings: for Kb: read-out: pA2 (converted)
[8] = molecular target: Melanocortin receptor 4 (Mus musculus) (UniProt P56450); test: as §1
[9] = molecular target: Melanocortin receptor 3 (Mus musculus) (UniProt P33033); test: Antagonist activity at mouse melanocortin-3 receptor transfected in HEK293 cells assessed as inhibition of MTII-induced response up to 10 uM after 6 hrs by Schild analysis
[10] = molecular target: Melanocortin receptor 3 (Mus musculus) (UniProt P33033); test: Agonist activity at mouse melanocortin-3 receptor transfected in HEK293 cells at 100 uM after 6 hrs by beta-galactosidase reporter gene assay relative to MTII-induced maximal response
[11] = molecular target: Melanocortin receptor 4 (Mus musculus) (UniProt P56450); test: Agonist activity at mouse melanocortin-4 receptor transfected in HEK293 cells at 100 uM after 6 hrs by beta-galactosidase reporter gene assay relative to MTII-induced maximal response
[12] = molecular target: T1, Melanocortin receptor 3; test: (§2) Antagonist activity at mouse melanocortin-3 receptor transfected in HEK293 cells assessed as inhibition of MTII-induced response after 6 hrs by Schild analysis; settings: read-out: pA2 (converted)
[13] = molecular target: Melanocortin receptor 3 (Mus musculus) (UniProt P33033); test: as §2

Melanocortin receptor 5, sequence (P41149 whole entry): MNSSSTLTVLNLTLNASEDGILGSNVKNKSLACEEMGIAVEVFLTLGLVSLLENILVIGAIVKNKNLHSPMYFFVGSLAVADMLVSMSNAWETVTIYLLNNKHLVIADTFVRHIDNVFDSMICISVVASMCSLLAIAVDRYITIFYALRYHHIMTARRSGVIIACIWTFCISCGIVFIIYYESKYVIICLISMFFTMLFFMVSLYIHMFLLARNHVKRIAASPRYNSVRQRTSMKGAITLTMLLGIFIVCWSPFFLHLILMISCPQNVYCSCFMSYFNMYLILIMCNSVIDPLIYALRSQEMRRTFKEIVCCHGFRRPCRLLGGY
Melanocyte-stimulating hormone receptor, sequence (Q01727 whole entry): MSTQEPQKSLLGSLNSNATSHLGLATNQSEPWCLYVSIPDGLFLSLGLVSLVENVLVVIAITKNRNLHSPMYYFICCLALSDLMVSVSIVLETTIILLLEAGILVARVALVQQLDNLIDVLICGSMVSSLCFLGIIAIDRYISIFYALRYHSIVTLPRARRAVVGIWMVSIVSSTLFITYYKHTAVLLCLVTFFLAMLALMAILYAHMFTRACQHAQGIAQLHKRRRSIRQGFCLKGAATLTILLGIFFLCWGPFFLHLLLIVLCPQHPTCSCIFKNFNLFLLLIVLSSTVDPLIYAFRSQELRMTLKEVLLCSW
T1 sequence (P33033 whole entry): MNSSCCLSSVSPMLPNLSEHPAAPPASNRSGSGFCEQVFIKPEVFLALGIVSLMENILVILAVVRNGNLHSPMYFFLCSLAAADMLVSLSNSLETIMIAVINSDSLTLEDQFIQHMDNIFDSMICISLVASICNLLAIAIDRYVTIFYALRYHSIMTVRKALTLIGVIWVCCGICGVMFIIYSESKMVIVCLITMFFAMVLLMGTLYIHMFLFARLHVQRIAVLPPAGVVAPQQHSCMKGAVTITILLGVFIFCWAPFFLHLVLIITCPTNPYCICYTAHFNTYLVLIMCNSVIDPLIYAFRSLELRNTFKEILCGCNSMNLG
Melanocortin receptor 3 (Mus musculus), sequence (P33033 whole entry): as above
Melanocortin receptor 4 (Mus musculus), sequence (P56450 whole entry): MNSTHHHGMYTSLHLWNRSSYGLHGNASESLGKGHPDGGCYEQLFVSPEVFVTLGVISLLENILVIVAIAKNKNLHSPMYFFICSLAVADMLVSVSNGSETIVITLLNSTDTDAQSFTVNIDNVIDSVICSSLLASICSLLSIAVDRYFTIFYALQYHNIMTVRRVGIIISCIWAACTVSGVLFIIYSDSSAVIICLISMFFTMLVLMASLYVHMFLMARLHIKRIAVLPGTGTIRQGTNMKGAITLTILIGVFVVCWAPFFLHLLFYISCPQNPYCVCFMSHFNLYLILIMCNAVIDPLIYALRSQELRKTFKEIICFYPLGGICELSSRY
T2 sequence (P56450 whole entry): as above

CCCC[C@H](NC(C)=O)C(=O)N[C@H]1CC(=O)NCCCC[C@@H](C(N)=O)NC(=O)[C@H](Cc2c[nH]c3ccccc23)NC(=O)[C@H](CCCNC(=N)N)NC(=O)[C@@H](Cc2ccc3ccccc3c2)NC(=O)[C@H](Cc2c[nH]cn2)NC1=O
EC50 [1]: 0.00067 µM | Activity [2]: 54%

CC(=O)N[C@@H](Cc1c[nH]c2ccccc12)C(=O)N[C@H](Cc1ccc(I)cc1)C(=O)N[C@@H](CCCNC(=N)N)C(=O)N[C@@H](Cc1ccc(-c2ccccc2)cc1)C(N)=O
inhibition [3]: inactive | EC50 [1]: 20.7 µM | EC50 [4]: 7.8 µM | EC50 [5]: > 100 µM | EC50 [6]: > 100 µM | Kb [7]: 0.501 µM | INH [8]: 480 nM

CC(=O)N[C@@H](Cc1c[nH]c2ccccc12)C(=O)N[C@H](Cc1ccc(I)cc1)C(=O)N[C@@H](CCCNC(=N)N)C(=O)N1Cc2ccccc2C[C@H]1C(N)=O
inhibition [9]: inactive | EC50 [1]: 2.7 µM | EC50 [4]: 5.3 µM | Activity [10]: 48% | Activity [11]: 44% | Kb [7]: 1 µM | INH [8]: 1000 nM

CC(=O)N[C@@H](Cc1c[nH]c2ccccc12)C(=O)N[C@H](Cc1ccc(I)cc1)C(=O)N[C@@H](CCCNC(=N)N)C(=O)N[C@@H](Cc1ccc2ccccc2c1)C(N)=O
Kb [12]: 1.26 µM | EC50 [1]: 5.5 µM | EC50 [4]: 20.3 µM | EC50 [5]: > 100 µM | EC50 [6]: > 100 µM | Ki [7]: < 0.006 µM | Kb [7]: 0.00501 µM

CC(=O)N[C@@H](Cc1c[nH]c2ccccc12)C(=O)N[C@H](Cc1ccc(I)cc1)C(=O)N[C@@H](CCCNC(=N)N)C(=O)N[C@@H](Cc1csc2ccccc12)C(N)=O
inhibition [3]: inactive | EC50 [1]: 8.3 µM | EC50 [4]: 23.7 µM | EC50 [5]: > 100 µM | EC50 [6]: > 100 µM | Kb [7]: 0.0794 µM

CC(=O)N[C@@H](Cc1c[nH]c2ccccc12)C(=O)N[C@H](Cc1ccc(I)cc1)C(=O)N[C@@H](CCCNC(=N)N)C(=O)N[C@@H](Cc1ccccc1)C(N)=O
EC50 [1]: 6.5 µM | EC50 [4]: 1.8 µM | Activity [10]: 66% | Activity [11]: 44% | Kb [7]: 0.158 µM

CC(=O)N[C@@H](Cc1cnc[nH]1)C(=O)N[C@H](Cc1ccccc1)C(=O)N[C@@H](CCCN=C(N)N)C(=O)N[C@@H](Cc1c[nH]c2ccccc12)C(N)=O
EC50 [4]: 0.0046 µM | EC50 [6]: 0.0054 µM

CC(=O)N[C@@H](Cc1cnc[nH]1)C(=O)N[C@H](Cc1ccccc1)C(=O)N[C@@H](CCCNC(=N)N)C(=O)N[C@@H](Cc1c[nH]c2ccccc12)C(N)=O
pA2 [13]: inactive | pA2 [8]: inactive

CC(=O)N[C@@H](Cc1c[nH]c2ccccc12)C(=O)N[C@H](Cc1ccc(I)cc1)C(=O)N[C@@H](CCCNC(=N)N)C(=O)N[C@@H](Cc1c[nH]c2ccccc12)C(N)=O (Ac-W[dPhe(4-I)]RW-NH2)
EC50 [1]: 2 µM | EC50 [4]: 2.8 µM | EC50 [5]: > 100 µM | EC50 [6]: > 100 µM

CC(=O)N[C@@H](Cc1c[nH]c2ccccc12)C(=O)N[C@H](Cc1ccc(I)cc1)C(=O)N[C@@H](CCCNC(=N)N)C(=O)N[C@H](Cc1ccc2ccccc2c1)C(N)=O
Kb [12]: 2 µM | EC50 [1]: 5.8 µM | EC50 [4]: 19.7 µM | EC50 [5]: > 100 µM | EC50 [6]: > 100 µM | Ki [7]: < 0.006 µM | Kb [7]: 0.00501 µM
